Experimental data taken from ChEMBL document CHEMBL1201862, “PubChem BioAssay data set” (2004).
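Method: 48-hour compound exposure of cells in 96-well plates, five concentrations, linear interpolation of endpoints. Abbreviation: GI50, concentration required for 50% inhibition of growth.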 Active and inactive are the calls of the source. Cut-off read from the data, not from the text of the source: active = GI50 up to about 1.1 µM and inactive = higher.

Experiments:
Test in all cases: NCI-60 cell line screen, 48 h
NCI/ADR-RES = test system: NCI/ADR-RES
SK-MEL-28 = test system: SK-MEL-28
MDA-N = test system: MDA-N
OVCAR-3 = test system: OVCAR-3
SF-268 = test system: SF-268
HOP-92 = test system: HOP-92
SNB-75 = test system: SNB-75
OVCAR-5 = test system: OVCAR-5
786-0 = test system: 786-0
HL-60 = test system: HL-60
DMS-114 = test system: DMS-114
KM12 = test system: KM12
UACC-257 = test system: UACC-257
M14 = test system: M14
NCI-H226 = test system: NCI-H226
SR = test system: SR
OVCAR-4 = test system: OVCAR-4
SF-539 = test system: SF-539
A549 = test system: A549
LOX IMVI = test system: LOX IMVI

Structure (SMILES) | GI50 (NCI/ADR-RES) | GI50 (SK-MEL-28) | GI50 (MDA-N) | GI50 (OVCAR-3) | GI50 (SF-268) | GI50 (HOP-92) | GI50 (SNB-75) | GI50 (OVCAR-5) | GI50 (786-0) | GI50 (HL-60) | GI50 (DMS-114) | GI50 (KM12) | GI50 (UACC-257) | GI50 (M14) | GI50 (NCI-H226) | GI50 (SR) | GI50 (OVCAR-4) | GI50 (SF-539) | GI50 (A549) | GI50 (LOX IMVI)
O=C1C=C(Nc2cccnc2)c2ccccc2C1=O | 4.25 µM (inactive) | 5.58 µM (inactive) | 0.372 µM (active) | 2.72 µM (inactive) | 7.91 µM (inactive) | 16.1 µM (inactive) | 1.51 µM (inactive) | 8.13 µM (inactive) | 8.95 µM (inactive) | 3.31 µM (inactive) | 2.02 µM (inactive) | 4.03 µM (inactive) | 1.9 µM (inactive) | 1.91 µM (inactive) | 25.6 µM (inactive) | 6.55 µM (inactive) | 8.87 µM (inactive) | 2.97 µM (inactive) | 3.65 µM (inactive) | 2.61 µM (inactive)
Cc1occ2c1C(=O)CC1C2[C@@H](O)CC2C(C)(C)CCC[C@]12C (stereo partly drawn) |  | > 100 µM (inactive) |  |  | > 100 µM (inactive) | > 100 µM (inactive) | > 100 µM (inactive) |  | > 100 µM (inactive) | 44.7 µM (inactive) | 82.8 µM (inactive) |  | > 100 µM (inactive) | > 100 µM (inactive) | > 100 µM (inactive) | 67.5 µM (inactive) | 98.9 µM (inactive) | > 100 µM (inactive) | > 100 µM (inactive) | 
COC(=O)C(=O)C(CC(=O)Nc1c(C)cccc1C)C(=O)OC (stereo not drawn) |  | > 100 µM (inactive) |  | > 100 µM (inactive) | > 100 µM (inactive) | > 100 µM (inactive) |  | > 100 µM (inactive) | > 100 µM (inactive) | > 100 µM (inactive) | > 100 µM (inactive) | > 100 µM (inactive) | > 100 µM (inactive) | > 100 µM (inactive) | > 100 µM (inactive) | > 100 µM (inactive) | > 100 µM (inactive) | > 100 µM (inactive) | > 100 µM (inactive) | > 100 µM (inactive)
CC1(C)C2CCC3(C2)CS(=O)(=O)N2OC231 (stereo not drawn) |  | 25.4 µM (inactive) |  | 19.1 µM (inactive) | 26.4 µM (inactive) | 10.8 µM (inactive) | 17 µM (inactive) | 23.7 µM (inactive) | 16.9 µM (inactive) | 15.4 µM (inactive) | 12.2 µM (inactive) | 19.6 µM (inactive) | 17.1 µM (inactive) | 16.2 µM (inactive) |  | > 100 µM (inactive) |  | 18.5 µM (inactive) | > 100 µM (inactive) | 16.3 µM (inactive)
Nc1nncc2c1c(Br)cn2C1OC(CO)C(O)C1O (stereo not drawn) |  | > 100 µM (inactive) |  | 6.62 µM (inactive) | 35.1 µM (inactive) | 8.63 µM (inactive) | 13.7 µM (inactive) | > 62.2 µM (inactive) | 21.1 µM (inactive) | 3.73 µM (inactive) | 9.35 µM (inactive) | 43.9 µM (inactive) | > 100 µM (inactive) | 23.9 µM (inactive) | > 100 µM (inactive) | 2.99 µM (inactive) | > 52.7 µM (inactive) | 30.5 µM (inactive) | 31.7 µM (inactive) | 5.74 µM (inactive)
O=C(Cc1ccccc1)N/N=C(/c1nc2ccc([N+](=O)[O-])cc2nc1O)C(O)c1ccc(C(O)/C(=N/NC(=O)Cc2ccccc2)c2nc3ccc([N+](=O)[O-])cc3nc2O)cc1 (stereo not drawn) |  | > 100 µM (inactive) |  | 20.7 µM (inactive) | 20.2 µM (inactive) | > 100 µM (inactive) | 31.3 µM (inactive) | 40.4 µM (inactive) | > 100 µM (inactive) | 7.01 µM (inactive) | 4.29 µM (inactive) |  | 62.4 µM (inactive) | 40.6 µM (inactive) | > 100 µM (inactive) | > 10 µM (inactive) | > 100 µM (inactive) | 56.8 µM (inactive) | 50.9 µM (inactive) | 12.1 µM (inactive)
COCCCNC(=O)CC(=O)NCCCOC |  | > 100 µM (inactive) |  | > 100 µM (inactive) | > 100 µM (inactive) | > 100 µM (inactive) |  | > 100 µM (inactive) | > 100 µM (inactive) | > 100 µM (inactive) | > 100 µM (inactive) | > 100 µM (inactive) | > 100 µM (inactive) | > 100 µM (inactive) |  | > 100 µM (inactive) | > 100 µM (inactive) | > 100 µM (inactive) | > 100 µM (inactive) | 
Cc1ccc([N+](=O)[O-])cc1NC(=O)/C(CC(=O)c1sc(C(N)=S)nc1C)=N\N |  | > 100 µM (inactive) |  | 26.9 µM (inactive) | > 100 µM (inactive) | 62.8 µM (inactive) | > 100 µM (inactive) | > 100 µM (inactive) | 40.6 µM (inactive) | 43.9 µM (inactive) | 30.3 µM (inactive) | 54.1 µM (inactive) | > 100 µM (inactive) | > 100 µM (inactive) |  | 88.9 µM (inactive) | 31.6 µM (inactive) | > 100 µM (inactive) | 46.2 µM (inactive) | > 100 µM (inactive)
O=C(/C=C/c1ccccc1)NC1C=Nc2ccc([N+](=O)[O-])cc2NC1=O (stereo not drawn) |  | > 100 µM (inactive) |  | 80.5 µM (inactive) | > 100 µM (inactive) | > 100 µM (inactive) | > 100 µM (inactive) | 71.9 µM (inactive) | > 100 µM (inactive) | 25.3 µM (inactive) | 15.8 µM (inactive) | 18.1 µM (inactive) | > 100 µM (inactive) | 52.8 µM (inactive) | > 100 µM (inactive) | > 100 µM (inactive) | > 100 µM (inactive) | > 100 µM (inactive) | > 100 µM (inactive) | 22.7 µM (inactive)
N#CC1(C2CC(=O)N(c3ccccc3)C2=O)CCCCC1=O (stereo not drawn) |  | > 100 µM (inactive) |  | > 100 µM (inactive) | > 100 µM (inactive) |  | > 100 µM (inactive) | > 100 µM (inactive) | > 100 µM (inactive) | > 100 µM (inactive) | > 100 µM (inactive) | > 100 µM (inactive) |  | > 100 µM (inactive) | > 100 µM (inactive) | > 100 µM (inactive) | > 100 µM (inactive) | > 100 µM (inactive) | > 100 µM (inactive) | > 100 µM (inactive)
CCOC(=O)c1[nH]c2cc(OC)c(OC)cc2c1CN(C)C |  | > 100 µM (inactive) |  |  | > 100 µM (inactive) | > 100 µM (inactive) | 67 µM (inactive) | > 100 µM (inactive) | > 100 µM (inactive) | > 100 µM (inactive) | > 100 µM (inactive) | > 100 µM (inactive) | > 100 µM (inactive) | > 100 µM (inactive) | > 100 µM (inactive) | > 100 µM (inactive) | > 100 µM (inactive) | > 100 µM (inactive) | > 100 µM (inactive) | > 100 µM (inactive)
Cc1c(-c2ccccc2)c(=O)oc2ccc(Cl)cc12 |  | > 100 µM (inactive) |  | > 100 µM (inactive) | 90.2 µM (inactive) | 32.7 µM (inactive) | 16.1 µM (inactive) | > 100 µM (inactive) | 36.5 µM (inactive) | > 100 µM (inactive) | 26.6 µM (inactive) | > 100 µM (inactive) | 8.55 µM (inactive) | 26.7 µM (inactive) | > 100 µM (inactive) | > 100 µM (inactive) | 53.3 µM (inactive) | 38.2 µM (inactive) | > 100 µM (inactive) | > 100 µM (inactive)
CC(=O)c1ccc(NC(=O)C(=O)Nn2c(S)nc3ccccc3c2=O)cc1 |  | > 100 µM (inactive) |  | > 100 µM (inactive) | > 100 µM (inactive) | > 100 µM (inactive) | > 100 µM (inactive) | > 100 µM (inactive) | > 100 µM (inactive) | > 100 µM (inactive) | > 100 µM (inactive) | > 100 µM (inactive) | > 100 µM (inactive) | > 100 µM (inactive) | > 100 µM (inactive) | > 100 µM (inactive) | > 100 µM (inactive) | > 100 µM (inactive) | > 100 µM (inactive) | > 100 µM (inactive)
CC(=O)c1cccc(NC(=O)/C(=N\NC(C)(C)C)c2c(O)c3ccccc3oc2=O)c1 |  | > 100 µM (inactive) |  | > 100 µM (inactive) | > 100 µM (inactive) | > 100 µM (inactive) | 39.2 µM (inactive) |  | > 100 µM (inactive) | > 100 µM (inactive) | > 100 µM (inactive) | > 100 µM (inactive) | > 100 µM (inactive) | > 100 µM (inactive) | > 100 µM (inactive) | > 100 µM (inactive) | > 100 µM (inactive) | > 100 µM (inactive) | > 100 µM (inactive) | > 100 µM (inactive)
N#CCc1ccc(C(C#N)/C(CCCC(=O)Nc2cccc([N+](=O)[O-])c2)=N\NC(=O)NN)cc1 (stereo not drawn) |  | > 100 µM (inactive) |  | > 100 µM (inactive) | > 100 µM (inactive) | > 100 µM (inactive) | > 100 µM (inactive) | > 100 µM (inactive) | > 100 µM (inactive) | > 100 µM (inactive) | > 100 µM (inactive) | > 100 µM (inactive) | > 100 µM (inactive) | > 100 µM (inactive) | > 100 µM (inactive) | > 100 µM (inactive) | > 100 µM (inactive) | > 100 µM (inactive) | > 100 µM (inactive) | 
C=C[C@]1(C)CCC2=C(CCC3C2(C)CCC[C@]3(C)CO)C1 (stereo partly drawn) |  | > 100 µM (inactive) |  | 40 µM (inactive) | 33.4 µM (inactive) | 43.1 µM (inactive) | 61.5 µM (inactive) | > 100 µM (inactive) | 59.8 µM (inactive) | 27.9 µM (inactive) | 31.2 µM (inactive) | 38.4 µM (inactive) | 51.5 µM (inactive) | 75.5 µM (inactive) | 41.2 µM (inactive) | 26.8 µM (inactive) | > 100 µM (inactive) | > 100 µM (inactive) | 40.6 µM (inactive) | 27.7 µM (inactive)
